Laboratory results taken from US9833497B2, “Human originated EGF domain proteins and use of the same” (CHENGDU SOURCEBIO LIMITED-LIABILITY COMPANY, priority 2013, dated 2017).

Columns and labels:
Format in all cases: cell-based
Proteus vulgaris = assay: MIC against Gram-negative bacteria: Proteus vulgaris
In short: (§1)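 MIC, the lowest recombinant protein concentration giving no bacterial growth, found by two-fold serial dilution of human EGF-domain proteins in triplicate. Inoculum 5×10^5 CFU/mL in LB from cultures at McFarland 0.5; plates incubated at 37° C, 175 rpm shaking.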

Serratia marcescens = assay: MIC against Gram-negative bacteria: Serratia marcescens
In short: as §1

Proteus mirabilis = assay: MIC against Gram-negative bacteria: Proteus mirabilis
In short: as §1

Klebsiella pneumonia = assay: MIC against Gram-negative bacteria: Klebsiella pneumonia
In short: as §1

Moraxella catarrhalis = assay: MIC against Gram-negative bacteria: Moraxella catarrhalis
In short: as §1

E. coli BL21 = assay: MIC against Gram-negative bacteria: E. coli BL21
In short: as §1

Aeromonas hydrophila = assay: MIC against Gram-negative bacteria: Aeromonas hydrophila
In short: as §1

Citrobacter diversus = assay: MIC against Gram-negative bacteria: Citrobacter diversus
In short: as §1

Enterobacter cloacae = assay: MIC against Gram-negative bacteria: Enterobacter cloacae
In short: as §1

Pseudomonas aeruginosa = assay: MIC against Gram-negative bacteria: Pseudomonas aeruginosa
In short: as §1

E. coli DH5α = assay: Antibacterial activity: MIC and growth curve against E. coli DH5α in 96-well plate; details: minimal inhibitory concentration against E. coli DH5α; 96-well plate, 5×10^5 CFU/mL, 37° C., judged after 8 h
In short: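 Log-phase DH5α (OD600 about 0.5, 37° C, 185 rpm in LB) was pelleted, resuspended in fresh LB and seeded at 5×10^5 CFU/mL with recombinant protein at 50, 25 and 12.5 μg/mL (two-fold series), in triplicate. Plates were shaken at 175 rpm, 37° C, and OD600 was read every 30 min. MIC was the lowest concentration with no growth.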

[1] = Proteus vulgaris, 96-well plate, 5×10^5 CFU/mL, 37° C., 10 h
[2] = Serratia marcescens, 96-well plate, 5×10^5 CFU/mL, 37° C., 10 h
[3] = Proteus mirabilis, 96-well plate, 5×10^5 CFU/mL, 37° C., 10 h
[4] = Klebsiella pneumonia, 96-well plate, 5×10^5 CFU/mL, 37° C., 10 h
[5] = Moraxella catarrhalis, 96-well plate, 5×10^5 CFU/mL, 37° C., 10 h
[6] = E. coli BL21, 96-well plate, 5×10^5 CFU/mL, 37° C., 10 h
[7] = Aeromonas hydrophila, 96-well plate, 5×10^5 CFU/mL, 37° C., 10 h
[8] = Citrobacter diversus, 96-well plate, 5×10^5 CFU/mL, 37° C., 10 h
[9] = Enterobacter cloacae, 96-well plate, 5×10^5 CFU/mL, 37° C., 10 h
[10] = Pseudomonas aeruginosa, 96-well plate, 5×10^5 CFU/mL, 37° C., 10 h
[11] = 96-well plate, 5×10^5 CFU/mL, 37° C., 10 h

Substance: PRT16 (EKSPCQPNPCHGAAPCRVLPEGGAQCECPLGREGTFCQ; listed as Homo sapiens)
- MIC (μg/mL) P. vulgaris (Proteus vulgaris; [1]): 25 µg/mL
- MIC (μg/mL) S. marcescens (Serratia marcescens; [2]): 25 µg/mL
- MIC (μg/mL) P. mirabilis (Proteus mirabilis; [3]): 50 µg/mL
- MIC (μg/mL) K. pneumonia (Klebsiella pneumonia; [4]): 12.5 µg/mL
- MIC (μg/mL) M. catarrhalis (Moraxella catarrhalis; [5]): 12.5 µg/mL
- MIC (μg/mL) E. coli BL21 (E. coli BL21; [6]): 12.5 µg/mL
- MIC (μg/mL) A. hydrophila (Aeromonas hydrophila; [7]): 50 µg/mL
- MIC (μg/mL) C. diversus (Citrobacter diversus; [8]): 25 µg/mL
- MIC (μg/mL) E. cloacae (Enterobacter cloacae; [9]): 12.5 µg/mL
- MIC (μg/mL) P. aeruginosa (Pseudomonas aeruginosa; [10]): 25 µg/mL
- MIC (E. coli DH5α): 12.5 µg/mL

Substance: PRT1040 (AAHPCVRAPCAHGGSCRPRKEGYDCDCPLGFEGLHCQ; listed as Homo sapiens)
- MIC (Proteus vulgaris; P. vulgaris, 10 h cultivation at 37° C.): 25 µg/mL
- MIC (Serratia marcescens; S. marcescens, 10 h cultivation at 37° C.): 50 µg/mL
- MIC (Proteus mirabilis; P. mirabilis, 10 h cultivation at 37° C.): 50 µg/mL
- MIC (Klebsiella pneumonia; K. pneumonia, 10 h cultivation at 37° C.): 25 µg/mL
- MIC (Moraxella catarrhalis; M. catarrhalis, 10 h cultivation at 37° C.): 25 µg/mL
- MIC (E. coli BL21; E. coli BL21, 10 h cultivation at 37° C.): 50 µg/mL
- MIC (Aeromonas hydrophila; A. hydrophila, 10 h cultivation at 37° C.): 12.5 µg/mL
- MIC (Citrobacter diversus; C. diversus, 10 h cultivation at 37° C.): 50 µg/mL
- MIC (Enterobacter cloacae; E. cloacae, 10 h cultivation at 37° C.): 50 µg/mL
- MIC (Pseudomonas aeruginosa; P. aeruginosa, 10 h cultivation at 37° C.): 50 µg/mL
- MIC (E. coli DH5α): 12.5 µg/mL

Substance: PRT1243 (FGESCEQQCPHCRHGEACEPDTGHCQRCDPGWLGPRCE; listed as Homo sapiens)
- MIC against P. vulgaris (Proteus vulgaris; [1]): 25 µg/mL
- MIC against S. marcescens (Serratia marcescens; [2]): 12.5 µg/mL
- MIC against P. mirabilis (Proteus mirabilis; [3]): 50 µg/mL
- MIC against K. pneumonia (Klebsiella pneumonia; [4]): 50 µg/mL
- MIC against M. catarrhalis (Moraxella catarrhalis; [5]): 25 µg/mL
- MIC against E. coli BL21 (E. coli BL21; [6]): 50 µg/mL
- MIC against A. hydrophila (Aeromonas hydrophila; [7]): 50 µg/mL
- MIC against C. diversus (Citrobacter diversus; [8]): 12.5 µg/mL
- MIC against E. cloacae (Enterobacter cloacae; [9]): 12.5 µg/mL
- MIC against P. aeruginosa (Pseudomonas aeruginosa; [10]): 12.5 µg/mL
- MIC (E. coli DH5α): 12.5 µg/mL

Substance: PRT516 (CNCSGLGSKNEDPCFGPCICKENVEGGDCSRCKSGFFNLQEDNWKGCDE; listed as Homo sapiens)
- MIC against P. vulgaris (Proteus vulgaris; [11]): 25 µg/mL
- MIC against S. marcescens (Serratia marcescens; [11]): 50 µg/mL
- MIC against P. mirabilis (Proteus mirabilis; [11]): 12.5 µg/mL
- MIC against K. pneumonia (Klebsiella pneumonia; [11]): 50 µg/mL
- MIC against M. catarrhalis (Moraxella catarrhalis; [11]): 25 µg/mL
- MIC against E. coli BL21 (E. coli BL21; [11]): 50 µg/mL
- MIC against A. hydrophila (Aeromonas hydrophila; [11]): 25 µg/mL
- MIC against C. diversus (Citrobacter diversus; [11]): 50 µg/mL
- MIC against E. cloacae (Enterobacter cloacae; [11]): 12.5 µg/mL
- MIC against P. aeruginosa (Pseudomonas aeruginosa; [11]): 12.5 µg/mL
- MIC (E. coli DH5α): 12.5 µg/mL

Substance: PRT1210 (SVNPCSSKPCLYGGTCVVDNGGFVCQCRGLYTGQRCQ; listed as Homo sapiens)
- MIC against P. vulgaris (Proteus vulgaris; [1]): 25 µg/mL
- MIC against S. marcescens (Serratia marcescens; [2]): 12.5 µg/mL
- MIC against P. mirabilis (Proteus mirabilis; [3]): 12.5 µg/mL
- MIC against K. pneumonia (Klebsiella pneumonia; [4]): 12.5 µg/mL
- MIC against M. catarrhalis (Moraxella catarrhalis; [5]): 25 µg/mL
- MIC against E. coli BL21 (E. coli BL21; [6]): 12.5 µg/mL
- MIC against A. hydrophila (Aeromonas hydrophila; [7]): 25 µg/mL
- MIC against C. diversus (Citrobacter diversus; [8]): 12.5 µg/mL
- MIC against E. cloacae (Enterobacter cloacae; [9]): 25 µg/mL
- MIC against P. aeruginosa (Pseudomonas aeruginosa; [10]): 25 µg/mL
- MIC (E. coli DH5α): 25 µg/mL

Substance: PRT535 (CQCDIGGALSSMCSGPSGVCQCREHVVGKVCQRPENNYYFPDLHH; listed as Homo sapiens)
- MIC against P. vulgaris (Proteus vulgaris; [11]): 12.5 µg/mL
- MIC against S. marcescens (Serratia marcescens; [11]): 50 µg/mL
- MIC against P. mirabilis (Proteus mirabilis; [11]): 50 µg/mL
- MIC against K. pneumonia (Klebsiella pneumonia; [11]): 12.5 µg/mL
- MIC against M. catarrhalis (Moraxella catarrhalis; [11]): 12.5 µg/mL
- MIC against E. coli BL21 (E. coli BL21; [11]): 25 µg/mL
- MIC against A. hydrophila (Aeromonas hydrophila; [11]): 12.5 µg/mL
- MIC against C. diversus (Citrobacter diversus; [11]): 50 µg/mL
- MIC against E. cloacae (Enterobacter cloacae; [11]): 50 µg/mL
- MIC against P. aeruginosa (Pseudomonas aeruginosa; [11]): 50 µg/mL
- MIC (E. coli DH5α): 12.5 µg/mL

Substance: PRT1269 (DIDECQTRNGGCDHFCKNIVGSFDCGCKKGFKLLTDEKSCQ; listed as Homo sapiens)
- MIC against P. vulgaris (Proteus vulgaris; [1]): 50 µg/mL
- MIC against S. marcescens (Serratia marcescens; [2]): 12.5 µg/mL
- MIC against P. mirabilis (Proteus mirabilis; [3]): 12.5 µg/mL
- MIC against K. pneumonia (Klebsiella pneumonia; [4]): 12.5 µg/mL
- MIC against M. catarrhalis (Moraxella catarrhalis; [5]): 50 µg/mL
- MIC against E. coli BL21 (E. coli BL21; [6]): 50 µg/mL
- MIC against A. hydrophila (Aeromonas hydrophila; [7]): 50 µg/mL
- MIC against C. diversus (Citrobacter diversus; [8]): 12.5 µg/mL
- MIC against E. cloacae (Enterobacter cloacae; [9]): 25 µg/mL
- MIC against P. aeruginosa (Pseudomonas aeruginosa; [10]): 25 µg/mL
- MIC (E. coli DH5α): 12.5 µg/mL
